In EPA's ToxRefDB 2:

Experiments:
rat [1] = settings: Multigenerational reproductive toxicity study, sprague dawley, Oral, Feed, dose end: 2 generation
rabbit = settings: Prenatal developmental toxicity study, dutch, Oral, Gavage/Intubation, dose end: 19 GD
dog = settings: Chronic toxicity; beagle; Oral; Feed; dose end: 52 week; group: systemic; systemic / in life observation / body weight / body weight + systemic / in life observation / food consumption / food consumption + systemic…
rat [2] = settings: Chronic toxicity, fischer, Oral, [Not Specified], dose end: 24 month, group: systemic
rat [3] = settings: Subchronic oral toxicity in rodents, Feed, dose end: 13 week, group: systemic, systemic / clinical chemistry / aspartate aminotransferase (ast/sgot) / aspartate aminotransferase (ast/sgot) + systemic / clinical …
rat [4] = settings: Prenatal developmental toxicity study, fischer, Oral, Gavage/Intubation, dose end: 15 GD
rat [5] = settings: Multigenerational reproductive toxicity study, other, Oral, Feed, dose end: 2 generation
rat [6] = settings: Multigenerational reproductive toxicity study, sprague dawley, Oral, Feed, dose end: 2 generation; remark: listed apart in the source
[7] = group: offspring, developmental / offspring survival late / [other] / [other] + systemic / in life observation / body weight / offspring (pup) weight
[8] = group: parental, systemic / in life observation / body weight / body weight + systemic / organ weight / ovary / nos
[9] = group: parental, systemic / in life observation / body weight / body weight + systemic / organ weight / ovary / nos + systemic / pathology microscopic / …
[10] = group: reproductive, reproductive / reproductive performance / fertility / fertility
[11] = group: reproductive, reproductive / reproductive performance / fertility / fertility + reproductive / reproductive performance / estrous cycle / corpora lutea
[12] = group: cholinesterase, cholinesterase / cholinesterase / cholinesterase / brain cholinesterase (che) + cholinesterase / cholinesterase / cholinesterase / …
[13] = group: developmental, developmental / developmental malformation / bone / incomplete ossification
[14] = group: maternal, reproductive / reproductive performance / resorptions / resorptions + systemic / in life observation / clinical signs / abnormal feces
[15] = systemic / pathology microscopic / testes / atrophy
[16] = group: developmental, systemic / in life observation / body weight / fetal weight
[17] = group: maternal, systemic / in life observation / body weight / body weight + systemic / in life observation / body weight / body weight gain + systemic / in…
[18] = group: maternal, systemic / in life observation / body weight / body weight gain + systemic / in life observation / food consumption / food consumption
[19] = group: parental, systemic / in life observation / body weight / body weight + systemic / in life observation / food consumption / food consumption
[20] = group: reproductive, reproductive / offspring survival early / litter size / litter size + reproductive / offspring survival early / live fetuses / live fetuses
[21] = group: offspring, systemic / in life observation / body weight / offspring (pup) weight
[22] = group: parental, systemic / organ weight / ovary / nos
[23] = group: reproductive, reproductive / reproductive performance / gestational length / gestational length

Compound: CCS(=O)CCSP(=O)(OC)OC (stereo not drawn) [Oxydemeton-methyl]
- LEL (rat [1]; [7]): 2.1 mg/kg/day
- LOAEL (rat [1]; [7]): 2.1 mg/kg/day
- NEL (rat [1]; [7]): 0.38 mg/kg/day
- NOAEL (rat [1]; [7]): 0.38 mg/kg/day
- NEL (rat [1]; [8]): 0.38 mg/kg/day
- NOAEL (rat [1]; [8]): 0.38 mg/kg/day
- LEL (rat [1]; [9]): 2.1 mg/kg/day
- LOAEL (rat [1]; [9]): 2.1 mg/kg/day
- NEL (rat [1]; [10]): 0.38 mg/kg/day
- NOAEL (rat [1]; [10]): 0.38 mg/kg/day
- LEL (rat [1]; [11]): 2.1 mg/kg/day
- LOAEL (rat [1]; [11]): 2.1 mg/kg/day
- LEL (rabbit; [12]): 1.6 mg/kg/day
- LOAEL (rabbit; [12]): 1.6 mg/kg/day
- NEL (rabbit; [12]): 0.4 mg/kg/day
- NOAEL (rabbit; [12]): 0.4 mg/kg/day
- LEL (rabbit; [13]): 0.1 mg/kg/day
- LOAEL (rabbit; [13]): 0.1 mg/kg/day
- NEL (rabbit; [13]): < 0.1 mg/kg/day
- NOAEL (rabbit; [13]): < 0.1 mg/kg/day
- LOAEL (rabbit; [14]): > 1.6 mg/kg/day
- NEL (rabbit; [14]): 0.1 mg/kg/day
- NOAEL (rabbit; [14]): ≥ 1.6 mg/kg/day
- LEL (rabbit; group: maternal, systemic / in life observation / clinical signs / abnormal feces): 0.4 mg/kg/day

Compound: Cc1ccccc1CO[C@@H]1C[C@@]2(C(C)C)CC[C@]1(C)O2 [Cinmethylin]
- LEL (dog): 75 mg/kg/day
- LOAEL (dog): 75 mg/kg/day
- NEL (dog): 7.5 mg/kg/day
- NOAEL (dog): 7.5 mg/kg/day
- LOAEL (rat [2]; systemic / pathology microscopic / kidney / nephropathy): 150 mg/kg/day
- NOAEL (rat [2]; systemic / pathology microscopic / kidney / nephropathy + systemic / organ weight / liver / relative to body weight + systemic / organ …): 5 mg/kg/day
- LEL (rat [2]; [15]): 1.5 mg/kg/day
- NEL (rat [2]; [15]): < 1.5 mg/kg/day
- LEL (rat [3]): 1.5 mg/kg/day
- LOAEL (rat [3]): > 50 mg/kg/day
- NEL (rat [3]): < 1.5 mg/kg/day
- NOAEL (rat [3]): ≥ 50 mg/kg/day

Compound: Cl/C=C\C[N+]12CN3CN(CN(C3)C1)C2.[Cl-] [Chloroallyl methenamine chloride]
- LEL (rat [4]; [16]): 75 mg/kg/day
- LOAEL (rat [4]; [16]): > 75 mg/kg/day
- NEL (rat [4]; [16]): 25 mg/kg/day
- NOAEL (rat [4]; [16]): ≥ 75 mg/kg/day
- LOAEL (rat [4]; [17]): 75 mg/kg/day
- NOAEL (rat [4]; [17]): 25 mg/kg/day
- LEL (rat [4]; [18]): 25 mg/kg/day
- NEL (rat [4]; [18]): < 25 mg/kg/day
- LEL (rat [5]; [7]): 14.8 mg/kg/day
- LOAEL (rat [5]; [7]): > 14.8 mg/kg/day
- NEL (rat [5]; [7]): 5 mg/kg/day
- NOAEL (rat [5]; [7]): ≥ 14.8 mg/kg/day
- LEL (rat [5]; [19]): 4.57 mg/kg/day
- LOAEL (rat [5]; [19]): > 13.4 mg/kg/day
- NEL (rat [5]; [19]): 1.53 mg/kg/day
- NOAEL (rat [5]; [19]): ≥ 13.4 mg/kg/day
- NEL (rat [5]; group: reproductive, reproductive / offspring survival early / litter size / litter size): 5 mg/kg/day
- LEL (rat [5]; [20]): 14.8 mg/kg/day
- LOAEL (rat [5]; [20]): > 14.8 mg/kg/day
- NOAEL (rat [5]; [20]): ≥ 14.8 mg/kg/day

Compound: CC1(C)CCC(Cc2ccc(Cl)cc2)C1(O)Cn1cncn1 (stereo not drawn) [Metconazole]
- LEL (rat [6]; [21]): 32 mg/kg/day
- LOAEL (rat [6]; [21]): 32 mg/kg/day
- NEL (rat [6]; [21]): 8 mg/kg/day
- NOAEL (rat [6]; [21]): 8 mg/kg/day
- LEL (rat [6]; [22]): 32 mg/kg/day
- LOAEL (rat [6]; [22]): 32 mg/kg/day
- NEL (rat [6]; [22]): 8 mg/kg/day
- NOAEL (rat [6]; [22]): 8 mg/kg/day
- LEL (rat [6]; [23]): 32 mg/kg/day
- LOAEL (rat [6]; [23]): > 32 mg/kg/day
- NEL (rat [6]; [23]): 8 mg/kg/day
- NOAEL (rat [6]; [23]): ≥ 32 mg/kg/day
